Results taken from the supplement of paper PMC10307832.

How the values were obtained:
Test in all cases: relative viability (nuclei count vs DMSO), 5 days (fraction); higher = more cells survive
Axitinib + Alpelisib = compound: CNC(=O)c1ccccc1Sc1ccc2c(/C=C/c3ccccn3)n[nH]c2c1 [Axitinib] + Cc1nc(NC(=O)N2CCC[C@H]2C(N)=O)sc1-c1ccnc(C(C)(C)C(F)(F)F)c1 [Alpelisib] (partner 2 µM)
Outline: (§1)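 Five library-drug doses in √10 steps were combined with a fixed anchor-drug dose, or a single drug was given alone, by pin tool to lung cancer cell lines in 1536-well plates the day after seeding. Nuclei were stained and counted after 5 days. Relative viability is the nuclei count in treated wells over that in vehicle wells, taken as the median of duplicate plates.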

Axitinib + Decitabine = compound: CNC(=O)c1ccccc1Sc1ccc2c(/C=C/c3ccccn3)n[nH]c2c1 [Axitinib] + Nc1ncn([C@H]2C[C@H](O)[C@@H](CO)O2)c(=O)n1 [Decitabine] (partner 2 µM)
Outline: as §1

Bemcentinib + Vorinostat = compound: Nc1nc(Nc2ccc3c(c2)CC[C@@H](N2CCCC2)CC3)nn1-c1cc2c(nn1)-c1ccccc1CCC2 [Bemcentinib] + O=C(CCCCCCC(=O)Nc1ccccc1)NO [Vorinostat] (partner 1 µM)
Outline: as §1

[1] = compound: Nc1nc(Nc2ccc3c(c2)CC[C@@H](N2CCCC2)CC3)nn1-c1cc2c(nn1)-c1ccccc1CCC2 [Bemcentinib] + CC(=O)c1c(C)c2cnc(Nc3ccc(N4CCNCC4)cn3)nc2n(C2CCCC2)c1=O [Palbociclib] (partner 0.5 µM)
Outline: as §1

Row | Cell Line | relative viability (Axitinib + Alpelisib; first compound 0.005 µM) | relative viability (Axitinib + Alpelisib; first compound 0.01581 µM) | relative viability (Axitinib + Alpelisib; first compound 0.05 µM) | relative viability (Axitinib + Alpelisib; first compound 0.1581 µM) | relative viability (Axitinib + Alpelisib; first compound 0.5 µM) | relative viability (Axitinib + Decitabine; first compound 0.005 µM) | relative viability (Axitinib + Decitabine; first compound 0.01581 µM) | relative viability (Axitinib + Decitabine; first compound 0.05 µM) | relative viability (Axitinib + Decitabine; first compound 0.1581 µM) | relative viability (Axitinib + Decitabine; first compound 0.5 µM) | relative viability (Bemcentinib + Vorinostat; first compound 0.04 µM) | relative viability (Bemcentinib + Vorinostat; first compound 0.1265 µM) | relative viability (Bemcentinib + Vorinostat; first compound 0.4 µM) | relative viability (Bemcentinib + Vorinostat; first compound 1.265 µM) | relative viability (Bemcentinib + Vorinostat; first compound 4 µM) | relative viability ([1]; first compound 0.04 µM) | relative viability ([1]; first compound 0.1265 µM) | relative viability ([1]; first compound 0.4 µM) | relative viability ([1]; first compound 1.265 µM) | relative viability ([1]; first compound 4 µM)
1 | NCI-H1563 | 1.04 | 0.916 | 0.951 | 0.892 | 0.986 | – | – | – | – | – | – | – | – | – | – | – | – | – | – | –
2 | EMC-BAC-2 | 0.788 | 0.702 | 0.742 | 0.749 | 0.808 | 1.03 | 0.966 | 0.971 | 0.965 | 0.945 | 0.38 | 0.413 | 0.537 | 0.358 | 0.4 | 0.519 | 0.556 | 0.507 | 0.513 | 0.519
3 | NCI-H596 | 0.503 | 0.624 | 0.531 | 0.599 | 0.553 | 1.15 | 0.976 | 1.32 | 0.935 | 1.07 | 0.582 | 0.449 | 0.721 | 0.391 | 0.674 | – | – | – | – | –
4 | NCI-H2009 | 1.21 | 1.2 | 1.13 | 1.2 | 1.29 | 0.408 | 0.339 | 0.409 | 0.364 | 0.346 | 0.671 | 0.783 | 0.71 | 0.723 | 0.722 | 0.185 | 0.21 | 0.225 | 0.239 | 0.261
5 | HOP-62 | 1.07 | 1.22 | 0.78 | 0.998 | 1.2 | 0.212 | 0.247 | 0.202 | 0.19 | 0.276 | 0.606 | 0.738 | 0.79 | 0.672 | 0.623 | 0.46 | 0.501 | 0.485 | 0.474 | 0.463
6 | NCI-H2126 | 0.724 | 0.795 | 0.745 | 0.707 | 0.697 | 0.617 | 0.595 | 0.571 | 0.583 | 0.562 | 0.76 | 0.787 | 0.791 | 0.812 | 0.889 | 0.342 | 0.334 | 0.364 | 0.385 | 0.357
7 | HCC-15 | 0.933 | 0.899 | 0.838 | 0.847 | 0.866 | 0.637 | 0.635 | 0.681 | 0.615 | 0.603 | 0.853 | 0.953 | 0.913 | 0.927 | 0.879 | 0.767 | 0.976 | 0.739 | 0.728 | 0.737
